In the supplement of paper PMC5579334:

Assays:
YST-1 = experiment: relative IC50 (inflection point of fitted dose-response curve, CellTiter-Glo viability, 72 h; top asymptote may be below 50% inhibition); higher = less potent
Method in brief: (§1)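 MPNST cell lines and primary human Schwann cells were seeded at 750–1000 cells per well into 384-well plates preprinted with each compound at five concentrations in 10-fold steps, then incubated 72 h at 37 °C, 5% CO2. CellTiter-Glo ATP luminescence gave viability, scaled between vehicle and positive-control wells, with duplicates averaged where present. Curves were fitted with a four-parameter logistic model. Percent inhibition refers to the top concentration, while drug sensitivity score and relative IC50, censored at the top concentration, come from these fits.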

HS-PSS [1] = experiment: as above
Method in brief: as §1

HS-Sch-2 = experiment: as above
Method in brief: as §1

HS-PSS [2] = experiment: relative IC50 (inflection point of fitted dose-response curve, CellTox-Green cytotoxicity, 72 h; top asymptote may be below 50%); higher = less potent
Method in brief: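 For 72 h at 37 °C, MPNST cell lines and primary human Schwann cells were exposed in 384-well plates to five 10-fold compound dilutions. CellTox-Green, added before seeding at a final 1:1000 dilution, gave fluorescence from DNA released by disrupted cells. Signals were scaled to vehicle and positive-control wells, cultures failing plate quality control were left out, and four-parameter logistic fits were applied. Relative IC50 and drug sensitivity score were derived from the fits, with IC50 censored at the top concentration.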

Compound	relative IC50 (YST-1) [nM]	relative IC50 (HS-PSS [1]) [nM]	relative IC50 (HS-Sch-2) [nM]	relative IC50 (HS-PSS [2]) [nM]
CC(=O)NCC(=O)N1[C@@H]2CC[C@H]1c1ccc(Nc3ncc(C(F)(F)F)c(NC4CCC4)n3)cc12	749	960	946	
CC(C)CC(=O)Nc1n[nH]c2c1CN(C(=O)C1CCN(C)CC1)C2(C)C	859	604	1290	
CC(C)Oc1ccc(C(=O)N[C@H](CNC(=O)CN(C)C)Cc2ccc(-c3cn4cccc([C@H](C)O)c4n3)cc2)cc1Cl	75.4	757	72.3	
CCn1c(-c2nonc2N)nc2c(C#CC(C)(C)O)ncc(OC[C@H]3CCCNC3)c21	> 10000	> 10000	1620	> 10000
CCn1cc(-c2ccnc3[nH]c(-c4cccc(CN(C)C)c4)cc23)c(-c2ccc(NC(=O)N(C)C)cc2)n1	3.97	142	157	> 1000
CN(c1ncccc1CNc1nc(Nc2ccc3c(c2)CC(=O)N3)ncc1C(F)(F)F)S(C)(=O)=O	2010	3340	3410	
CNC(=O)c1ccccc1Nc1nc(Nc2ccc3c(c2OC)CCC[C@H](N2CCN(CCO)CC2)C3)ncc1Cl	633	155	979	1090
CS(=O)(=O)N1CCc2c(-c3cnc(N)nc3)nc(N3CCOCC3)nc21	256	687	1050	> 10000
C[C@@H](Oc1cc(-n2cnc3ccc(CN4CCN(C)CC4)cc32)sc1C(N)=O)c1ccccc1C(F)(F)F	20.9	501	11.9	3200
C[C@@H]1CN(CC(=O)Nc2ccc3c(c2)Cc2cccc(-c4cc(=O)cc(N5CCOCC5)o4)c2S3)C[C@H](C)O1	9260	10100	4240	> 25000
Cc1c(NC(=O)OC[C@@H]2COCCN2)cn2ncnc(Nc3ccc4c(cnn4Cc4cccc(F)c4)c3)c12	1000	2150	1990	
Cc1ccc2nc(CN(CCN(Cc3nc4ccc(C)cc4[nH]3)Cc3nc4ccc(C)cc4[nH]3)Cc3nc4ccc(C)cc4[nH]3)[nH]c2c1	7770	7700	8240	
NCC(=O)Nc1ccc(-n2nc(C(F)(F)F)cc2-c2ccc3c(ccc4ccccc43)c2)cc1	7970	9140	6000	5040
O=C1NC(=O)/C(=C/c2ccc3nccc(-c4ccncc4)c3c2)S1	1170	3060	3380	> 10000
O=C1c2ccccc2-c2n[nH]c3cccc1c23	20100	13300	13900	
O=C(NC1CCNCC1)c1n[nH]cc1NC(=O)c1c(Cl)cccc1Cl [AT7519]	69.3	277	337	
Cc1ncc(-c2ccnc(Nc3ccc(S(C)(=O)=O)cc3)n2)n1C(C)C [AZD-5438]	1450	367	1900	
COc1cc(NS(C)(=O)=O)ccc1Nc1c2ccccc2nc2ccccc12 [Amsacrine]	252	1250	634	
N#CC(c1ccnc(OCc2ccc(CN3CCOCC3)cc2)n1)c1nc2ccccc2s1 (stereo not drawn) [Bentamapimod]	1500	1690	2690	
CO[C@H]1C(=O)[C@]2(C)[C@@H](OC)C[C@H]3OC[C@@]3(OC(C)=O)[C@H]2[C@H](OC(=O)c2ccccc2)[C@]2(O)C[C@H](OC(=O)[C@H](O)[C@@H](NC(=O)OC(C)(C)C)c3ccccc3)C(C)=C1C2(C)C [Cabazitaxel]	0.74	418	0.94	

Compound	relative IC50 (YST-1) [nM]	relative IC50 (HS-PSS [1]) [nM]	relative IC50 (HS-Sch-2) [nM]	relative IC50 (HS-PSS [2]) [nM]
Cc1cc(Nc2ncc(Cl)c(Nc3ccccc3S(=O)(=O)C(C)C)n2)c(OC(C)C)cc1C1CCNCC1 [Ceritinib]	359	91.3	926	
O=C(c1ccc(F)c(F)c1Nc1ccc(I)cc1F)N1CC(O)([C@@H]2CCCCN2)C1 [Cobimetinib]	> 1000	159	300	
CON(C)C(=O)N1N=C(c2cc(F)ccc2F)S[C@@]1(CCCN)c1ccccc1 [Filanesib]	2.28	4.62	2.19	
CC(C)NC[C@@H](C(=O)N1CCN(c2ncnc3c2[C@H](C)C[C@H]3O)CC1)c1ccc(Cl)cc1 [Ipatasertib]	879	1160	1080	
CN[C@@H](C)C(=O)N[C@H](C(=O)N1CCC[C@H]1c1nc(C(=O)c2ccc(F)cc2)cs1)C1CCCCC1 [LCL161]	4260	3860	7520	
O=C(O)c1ccc(Nc2ncc3c(n2)-c2ccc(Cl)cc2C(c2c(F)cccc2F)=NC3)cc1 [MLN-8054]	625	1260	1110	
O=C(Nc1cccc(NC(=O)c2cccc(O)c2O)c1)c1cccc(O)c1O [MST-312]	3120	3370	984	
CNC(=O)c1nn(C)c2c1C(C)(C)Cc1cnc(Nc3ccc(N4CCN(C)CC4)cc3)nc1-2 [Milciclib]	351	779	1240	
NC(=O)c1cccc2cn(-c3ccc(C4CCCNC4)cc3)nc12 (stereo not drawn) [Niraparib]	461	1760	661	
CC(=O)c1cnc2ccc(-c3cc(Cl)c(O)c(Cl)c3)nc2c1N[C@H]1CC[C@H](CN(C)C)CC1 [OTSSP167]	10.8	339	26.1	
C=CC(=O)Nc1cc(Nc2nccc(-c3cn(C)c4ccccc34)n2)c(OC)cc1N(C)CCN(C)C [Osimertinib]	299	472	759	
CCn1nnc2c(N3CCOCC3)nc(-c3ccc(NC(=O)Nc4ccc(C(=O)N5CCN(C)CC5)cc4)cc3)nc21 [PKI-402]	61.1	46.7	95.8	
CCOc1cc2ncc(C#N)c(Nc3ccc(F)c(Cl)c3)c2cc1NC(=O)/C=C/CN(C)C [Pelitinib]	323	79.5	195	
COc1cccc(OCCCN)c1-c1cc(Nc2cnc(C#N)cn2)n[nH]1 [Prexasertib]	54.7	1770	26	
O=C(CCCCCCNC(=O)c1cnc(N(c2ccccc2)c2ccccc2)nc1)NO [Rocilinostat]	1240	2760	1930	
Cc1cc2c(C(=O)NC[C@H](C)c3ccccc3)c(O)c(O)cc2c(O)c1-c1c(C)cc2c(C(=O)NC[C@H](C)c3ccccc3)c(O)c(O)cc2c1O [Sabutoclax]	618	8740	523	
Cn1ncc(Cl)c1-c1cc(C(=O)N[C@H](CN)Cc2ccc(F)c(F)c2)oc1Cl [Uprosertib]		> 10000	> 10000	> 10000
CNC(=O)c1ccccc1Nc1cc(Nc2ccc(N3CCOCC3)cc2OC)ncc1C(F)(F)F [VS-4718]	724	3690	2610	
CC1(C)CCC(CN2CCN(c3ccc(C(=O)NS(=O)(=O)c4ccc(NCC5CCOCC5)c([N+](=O)[O-])c4)c(Oc4cnc5[nH]ccc5c4)c3)CC2)=C(c2ccc(Cl)cc2)C1 [Venetoclax]		> 1000	> 1000	> 1000
O=C(/C=C\n1cnc(-c2cc(C(F)(F)F)cc(C(F)(F)F)c2)n1)NNc1ccccn1 [Verdinexor]	144	137	137	
